The text below walks through data of patent US20210002242A1, “DIACYLGLYCEROL LACTONE COMPOUND, PREPARATION METHOD THEREFOR, AND IMMUNOSTIMULATOR CONTAINING SAME AS ACTIVE INGREDIENT” (priority 2018, published 2021).

In one series the test system is CXCL8 (IL-8). Briefly: Increase in expression of CXCL8 (IL-8) in THP-1 cells, human IL-8 ELISA of culture supernatant. The format is cell-based. Conditions: for CXCL8 [IL-8] concentration (pg/μl, average ± deviation): THP-1 cells, 24 hours, supernatant. The procedure: In RPMI (Hyclone, Thermo Scientific) medium to which 10% Fetal Bovine Serum was added, THP-1 cells, a human macrophage family, were suspended at a concentration of 1×10^5 cells/ml, and culture was conducted in a 5% CO2 humidified incubator at 37° C. The cultured THP-1 cells were inoculated into a 12 well plate by 1×10^6 cells/ml and stabilized for 30 minutes. Then, the culture solution was treated with a diacylglycerol lactone compound of the type shown in Table 2 below for 1 hour and then was treated with Gemcitabine (2 μg/ml) of a cell stimulator, and subsequent further incubation was conducted for 24 hours. Thereafter 1.5 ml of the culture supernatant was collected for each well and centrifuged (at 3000 rpm, 5 minutes) to recover the supernatant. The CXCL8 (IL-8) level in the recovered supernatant was measured according to the manual provided by the human IL-8 ELISA set (BD Biosciences). The day before ELISA was carried out, the IL-8 capture antibody was diluted in phosphate buffered saline, coated on a microwell, and then stored at 4° C. overnight. Each well was washed three times with a washing buffer solution and then blocked with 2% Bovine Serum Albumin (BSA) for 1 hour at room temperature. After washing with washing buffer solution three times, 100 μl of sample was dispensed into each well and left at room temperature for 2 hours. Detection antibody which was washed 3 times with washing buffer and diluted was dispensed into each well and allowed to react at room temperature for 1 hour and left at room temperature for 1 hour. Thereafter, the secondary HRP conjugated antibody was reacted at room temperature for 30 minutes, washed three times with a washing buffer, and treated with 50 μl of stop solution for each well, and then the optical density was measured at 450 nm with an ELISA microplate leader.
Background: ELISA stands for enzyme-linked immunosorbent assay.

A further series deals with RAW264.7 cells. Nature of the series: Cytotoxicity assessment, cell viability by EZ-Cytox (WST), OD 450 nm. The format is cell-based, mouse. Conditions: 100 μg/ml, 24 hours. The procedure: In DMEM (Dulbecco Modified Eagle Medium) medium with 10% Fetal Bovine Serum added, RAW264.7 cells, which are cells of the mouse macrophage family, were suspended at a concentration of 1×10^5 cells/ml, and then were inoculated into 96 well plates by 100 μl, and culture was conducted for 15 hours. […] According to the EZ-CYTOX (Daeillab_EZ-1000) manual for measuring the amount of living cells using WST, 10 μl of EZ-Cytox was added to each well and reacted for up to 2 hours from 30 minutes, and then an optical density (OD) at 450 nm was measured.

[1] abbreviates: compound 100 μg/ml for 1 hour, then Gemcitabine 2 μg/ml.

As to `CCCCC/C=C\C/C=C\CCCCCCCC(=O)OCC1(COC(=O)CC)CCC(=O)O1` (racemic) [EC-A115], the “CXCL8 [IL-8] concentration (pg/μl, average ± deviation)” value (“CXCL8 … (pg/μl, average ± deviation)” below) with CXCL8 (IL-8) (setting [1]) amounted to 1202.80 ± 38.09 pg/µL.

Take `CCCCC/C=C\C/C=C\CCCCCCCC(=O)OCC1(COC(=O)CCCCCCCC)CCC(=O)O1` (racemic) [EC-A120]: the “CXCL8 … (pg/μl, average ± deviation)” value with CXCL8 (IL-8) (setting [1]) is 237.80 ± 3.64 pg/µL.

As for `CCCCC/C=C\C/C=C\CCCCCCCC(=O)OCC1(COC(=O)C2CCCCC2)CCC(=O)O1` (racemic) [EC-A128], the “CXCL8 … (pg/μl, average ± deviation)” value in the series with CXCL8 (IL-8) (setting [1]) amounted to 351.03 ± 7.75 pg/µL.

For `CCCCCCCCCCCCCCCC(=O)OCC1(COC(=O)C(C)C)CCC(=O)O1` (racemic) [EC-A131], the “CXCL8 … (pg/μl, average ± deviation)” value with CXCL8 (IL-8) (setting [1]) turned out to be 1256.19 ± 15.96 pg/µL. Also, the RAW264.7 cell viability with RAW264.7 cells is on record as 100.25 ± 14.78%.

Consider `CCCCC/C=C\C/C=C\CCCCCCCC(=O)OCC1(COC(=O)CCC)CCC(=O)O1` (racemic) [EC-A116], for which the “CXCL8 … (pg/μl, average ± deviation)” value in the series on CXCL8 (IL-8) (setting [1]) is 865.54 ± 12.31 pg/µL. Also, the RAW264.7 cell viability in the series on RAW264.7 cells stood at 141.09 ± 5.01%.

Turning to `CCCCCCCCCCCCCCCC(=O)OCC1(COC(=O)C(C)(C)C)CCC(=O)O1` (stereo not shown) [EC-A132], in the series with CXCL8 (IL-8) (setting [1]), the “CXCL8 … (pg/μl, average ± deviation)” value amounted to 921.35 ± 52.46 pg/µL. For the same molecule, the RAW264.7 cell viability with RAW264.7 cells came out at 96.58 ± 5.01%.

Take `CCCCCCCCCCCCCCCC(=O)OCC1(COC(=O)C2CC2)CCC(=O)O1` (stereo not shown) [EC-A134]: the “CXCL8 … (pg/μl, average ± deviation)” value in the series with CXCL8 (IL-8) (setting [1]) was found to be 1266.03 ± 2.05 pg/µL. For the same molecule, the RAW264.7 cell viability in the series on RAW264.7 cells was 110.06 ± 4.19%.

As to `CCCCC/C=C\C/C=C\CCCCCCCC(=O)OCC1(COC(=O)C(C)(C)C)CCC(=O)O1` (racemic) [EC-A125], in the series with CXCL8 (IL-8) (setting [1]), the “CXCL8 … (pg/μl, average ± deviation)” value turned out to be 252 ± 11.86 pg/µL.

In the case of `CCCCCCCCCCCCCCCC(=O)OCC1(COC(=O)CCCCCCCCCCCCC)CCC(=O)O1` (stereo not shown) [EC-A137], in the series with CXCL8 (IL-8) (setting [1]), the “CXCL8 … (pg/μl, average ± deviation)” value stood at 133.12 ± 8.43 pg/µL. The RAW264.7 cell viability in the series on RAW264.7 cells is reported as 93.87 ± 8.85%.

Regarding `CCCCCC=CCC=CCCCCCCCC(=O)OCC1(COC(=O)C(C)CC)CCC(=O)O1` (mixture of isomers) [EC-A126], in the series on CXCL8 (IL-8) (setting [1]), the “CXCL8 … (pg/μl, average ± deviation)” value was 352.96 ± 0.45 pg/µL.

Regarding `CCCCC/C=C\C/C=C\CCCCCCCC(=O)OCC1(COC(=O)CCCCCC)CCC(=O)O1` (racemic) [EC-A119], in the series on CXCL8 (IL-8) (setting [1]), the “CXCL8 … (pg/μl, average ± deviation)” value came out at 343.61 ± 7.75 pg/µL.

Turning to `CCCCC/C=C\C/C=C\CCCCCCCC(=O)OCC1(COC(=O)CCCCCCCCCCC)CCC(=O)O1` (racemic) [EC-A121], the “CXCL8 … (pg/μl, average ± deviation)” value in the series with CXCL8 (IL-8) (setting [1]) was 215.38 ± 4.33 pg/µL. In addition, the RAW264.7 cell viability with RAW264.7 cells was 114.25 ± 33.11%.

For the molecule `CCCCC/C=C\C/C=C\CCCCCCCC(=O)OCC1(COC(=O)CCCCC)CCC(=O)O1` (racemic) [EC-A118], the “CXCL8 … (pg/μl, average ± deviation)” value in the series on CXCL8 (IL-8) (setting [1]) is 622.16 ± 6.61 pg/µL.

As for `CCCCCCCCCCCCCCCC(=O)OCC1(COC(=O)C2CCCCC2)CCC(=O)O1` (stereo not shown) [EC-A135], in the series on CXCL8 (IL-8) (setting [1]), the “CXCL8 … (pg/μl, average ± deviation)” value turned out to be 310.87 ± 14.37 pg/µL.

In the case of `Nc1ccn([C@@H]2O[C@H](CO)[C@@H](O)C2(F)F)c(=O)n1` [Gemcitabine, reference compound], the “secretion of CXCL8 (IL-8) chemokine, increase compared to the negative control group” value in the series on CXCL8 (IL-8) (THP-1 cells treated with Gemcitabine) was “about five”. Further, the “CXCL8 … (pg/μl, average ± deviation)” value in the series on CXCL8 (IL-8) (Gemcitabine 2 μg/ml alone) turned out to be 101.83 ± 1.59 pg/µL.

Regarding `CCCCCCCCCCCCCCCC(=O)OCC1(COC(=O)CCCCCCCCCCC)CCC(=O)O1` (stereo not shown) [EC-A136], the “CXCL8 … (pg/μl, average ± deviation)” value in the series with CXCL8 (IL-8) (setting [1]) was 138.93 ± 2.96 pg/µL. Moreover, in the series with RAW264.7 cells, the RAW264.7 cell viability is recorded as 95.54 ± 3.01%.

For `CCCCC/C=C\C/C=C\CCCCCCCC(=O)OCC1(COC(=O)CCCCCCCCCCCCC)CCC(=O)O1` (racemic) [EC-A122], the “CXCL8 … (pg/μl, average ± deviation)” value in the series with CXCL8 (IL-8) (setting [1]) turned out to be 190.06 ± 4.56 pg/µL. For the same molecule, the RAW264.7 cell viability in the series on RAW264.7 cells worked out at 105.48 ± 3.92%.

As to `CCCCC/C=C\C/C=C\CCCCCCCC(=O)OCC1(COC(=O)CCCC)CCC(=O)O1` (racemic) [EC-A117], the “CXCL8 … (pg/μl, average ± deviation)” value in the series on CXCL8 (IL-8) (setting [1]) worked out at 568.12 ± 8.21 pg/µL.

For the molecule `CCCCC/C=C\C/C=C\CCCCCCCC(=O)OCC1(COC(=O)C(C)C)CCC(=O)O1` (racemic) [EC-A124], the “CXCL8 … (pg/μl, average ± deviation)” value in the series with CXCL8 (IL-8) (setting [1]) was 663.45 ± 2.96 pg/µL.

Turning to `CCCCC/C=C\C/C=C\CCCCCCCC(=O)OCC1(COC(=O)C2CC2)CCC(=O)O1` (racemic) [EC-A127], the “CXCL8 … (pg/μl, average ± deviation)” value with CXCL8 (IL-8) (setting [1]) amounted to 532.32 ± 1.82 pg/µL.

As for `CCCCCCCCCCCCCCCC(=O)OCC1(COC(=O)C(C)CC)CCC(=O)O1` (stereo not shown) [EC-A133], the “CXCL8 … (pg/μl, average ± deviation)” value in the series with CXCL8 (IL-8) (setting [1]) was found to be 1176.67 ± 29.42 pg/µL. Moreover, the RAW264.7 cell viability in the series with RAW264.7 cells turned out to be 114.45 ± 3.46%.
